Data: US20180318383A1, “PEPTIDE HAVING NEURONAL LOSS PREVENTION AND REGENERATION EFFECTS, AND COMPOSITION CONTAINING SAME” (GEMVAX & KAEL CO., LTD., priority 2015, published 2018)

Columns and labels:
[1] = system: NSCs; assay: Oxidative mitochondrial DNA damage (8-OHdG ELISA); type: cell-based, rat; settings: 20 μM Aβ25-35 + PEP1
Method: The oxidative DNA damage in the mitochondria was observed using an 8-OHdG ELISA kit. The mitochondria DNA was obtained using a genomic DNA isolation kit. 8-OHdG monoclonal antibodies were added to samples and a control group, and then corresponding HRP-attached secondary antibodies were added thereto. The samples were quantified using 8-OHdG and observed by measuring absorbance at 450 nm.

[2] = system: NSCs; assay: NSC differentiation in bFGF-free N2 medium (immunostaining); type: cell-based, rat; settings: Aβ25-35 increased GFAP-positive and decreased NeuN-positive cells
Method: NSC differentiation was induced by changing the cell culture medium to a bFGF (10 ng/ml)-free N2 medium, and the medium was exchanged daily.
Immunostaining was carried out to confirm intracellular expression and locations. For immunostaining, the following antibodies were used: Ki67 (1:100 Abcam), rabbit anti-doublecortin (1 mg/mL; Abcam), rabbit anti-glial fibrillary acidic protein (GFAP) (1:5000; Abcam), rabbit anti-Tuj1 (1 mg/mL; Abcam), mouse anti-GalC (1 mg/mL; Millipore), and rabbit anti-HMGB1 (1:100; Cell Signaling Technology).
However, in a large number of GFAP-positive cells and NeuN-positive cells, such immune responses were increased after differentiation.

[3] = system: Tuj1; assay: Tuj1 expression in 3XTg-AD mice (western blotting, immunostaining); type: in vivo; settings: hippocampus and whole brain; s.c. three times a week for two months; vs control and Donepezil, same amount
Method: (§1) To test the efficacy of PEP1 on AD, AD transgenic mice (3XTg-AD) were purchased from Jackson Laboratory. Genetic characteristics of the transgenic mice are as follows: B6; 129-Psen1tm1Mpm Tg(APPSwe, tauP301L)1Lfa/Mmjax. […] One week after mice were confirmed as pregnant, new mice were delivered and weaned for 3 weeks. Two weeks later, mature mice were obtained.
(§2) During the preliminary breeding and the entire period of the experiment, a temperature was maintained at 23±2° C. and a relative humidity was maintained at 60±10%, and then the mice were raised under a 12-hour dark/light cycle. Experimental animals were divided into five groups, and each group included 10 animals. The divided experimental groups are as follows. […]
(§3) The PEP1, physiological saline, donepezil and scramble peptide were subcutaneously injected at each concentration three times a week for two months from the age of 12 months, and then two months after the injection, cognitive/memory behavior tests (passive avoidance test and Y maze test) were performed to examine a degree of improvement in cognitive function and memory function. After the brain was extracted to separate the hippocampus, the amounts of amyloid beta in the hippocampus and the whole brain, and the amounts of an amyloid beta oligomer and NFT generated by tau hyperphosphorylation were determined by western blotting and immunostaining. […]

[4] = system: Tau; assay: NFT generation (Tau expression) in 3XTg-AD mice (western blotting, immunostaining); type: in vivo; settings: hippocampus and whole brain; vs control and Donepezil
Method: as §1, §2, §3

[5] = system: neuronal apoptosis; assay: Oxygen-glucose deprivation (OGD), in vitro model of ischemic stroke; type: cell-based

EARPALLTSRLRFIPK (homo sapiens) [PEP1, hTERT-derived peptide consisting of 16 amino acids, telomerase location [611-626]]
oxidative mitochondrial DNA damage [1]: effectively decreased
NSC differentiation into GFAP-positive and NeuN-positive cells [2]: the opposite effect was observed
Tuj1 [3]: increased
expression level of Tau [4]: decreased
neuronal apoptosis caused by oxygen-glucose deprivation (OGD) [5]: inhibiting neuronal apoptosis
